Active and inactive are the calls of the source. The rule behind the calls is not given here.
Legend:
[1] = (§1) Inhibition of activation of human complement
[2] = tested on: HL-60; assay: Antioxidant activity in HL60 cells by DCFH-DA method upto 20ug/mL; format: functional, cell-based; conditions: Homo sapiens
[3] = tested on: SK-MEL; assay: Cytotoxicity against SK-MEL cells upto 25 ug/mL by neutral red assay; format: cell-based; conditions: human
[4] = tested on: KB; assay: Cytotoxicity against KB cells upto 25 ug/mL by neutral red assay; format: cell-based; conditions: human
[5] = tested on: BT-549; assay: Cytotoxicity against BT549 cells upto 25 ug/mL by neutral red assay; format: cell-based; conditions: human
[6] = tested on: SK-OV-3; assay: Cytotoxicity against SKOV3 cells upto 25 ug/mL by neutral red assay; format: cell-based; conditions: human
[7] = tested on: LLC-PK1; assay: Cytotoxicity against LLC-PK1 cells upto 25 ug/mL by neutral red assay; format: cell-based, Sus scrofa; conditions: pig
[8] = target: T1, Estrogen receptor (Homo sapiens) (UniProt P03372); assay: Activity against human ERalpha expressed in recombinant yeast cells upto 500 ug/mL; format: cell-based
T1 sequence (whole entry): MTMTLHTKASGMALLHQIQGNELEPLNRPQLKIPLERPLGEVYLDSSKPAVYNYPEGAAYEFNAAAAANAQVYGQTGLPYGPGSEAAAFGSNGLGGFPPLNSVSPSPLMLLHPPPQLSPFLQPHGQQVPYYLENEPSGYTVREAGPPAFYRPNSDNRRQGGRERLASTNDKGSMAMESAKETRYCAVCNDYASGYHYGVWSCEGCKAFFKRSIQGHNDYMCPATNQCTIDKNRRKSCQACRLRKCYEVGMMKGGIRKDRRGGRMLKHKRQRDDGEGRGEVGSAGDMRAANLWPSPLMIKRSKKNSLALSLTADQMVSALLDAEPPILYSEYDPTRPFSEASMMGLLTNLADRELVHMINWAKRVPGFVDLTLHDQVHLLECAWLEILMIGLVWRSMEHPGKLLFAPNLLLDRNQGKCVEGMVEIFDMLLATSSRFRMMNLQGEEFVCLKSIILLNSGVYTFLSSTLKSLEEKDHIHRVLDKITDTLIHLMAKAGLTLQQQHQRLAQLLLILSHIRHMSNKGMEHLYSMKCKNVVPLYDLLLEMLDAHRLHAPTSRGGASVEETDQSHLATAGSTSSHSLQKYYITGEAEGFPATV

[9] = species: Homo sapiens; assay: as §1
[10] = tested on: Vero; assay: Cytotoxicity against Vero cells upto 25 ug/mL by neutral red assay; format: cell-based; conditions: chlorocebus sabaeus

| IC50 [1] [µM] | Compound | Activity [2] | Activity [3] | Activity [4] | Activity [5] | Activity [6] | Activity [7] | Activity [8] | Activity [9] | Activity [10] |
| --- | --- | --- | --- | --- | --- | --- | --- | --- | --- | --- |
| 55 | C[C@H]1[C@H](C)CC[C@]2(C(=O)O)CC[C@]3(C)C(=CC[C@@H]4[C@@]5(C)CC[C@H](O)C(C)(C)[C@@H]5CC[C@]43C)[C@H]12 [URSOLIC ACID] |  |  |  |  |  |  |  |  |  |
| 187 | CC(=O)O[C@@H]1C[C@@]23C[C@@]24CC[C@H](O)C(C)(C)[C@@H]4CC[C@H]3[C@]2(C)[C@@H](O)[C@]34O[C@H](C[C@@H](C)[C@@H]3[C@@]12C)[C@@H](C(C)(C)O)O4 | inactive | Not Active | Not Active | Not Active | Not Active | Not Active | inactive |  | Not Active |
| 78 | CC1(C)CC[C@]2(C(=O)O)CC[C@]3(C)C(=CC[C@@H]4[C@@]5(C)CC[C@H](O)C(C)(C)[C@@H]5CC[C@]43C)[C@@H]2C1 [OLEANOLIC_ACID] |  |  |  |  |  |  |  |  |  |

Further lines, the molecule ahead of its results:

| Compound | IC50 [1] [µM] | Activity [2] | Activity [3] | Activity [4] | Activity [5] | Activity [6] | Activity [7] | Activity [8] | Activity [9] | Activity [10] |
| --- | --- | --- | --- | --- | --- | --- | --- | --- | --- | --- |
| CC(=O)O[C@@H]1C[C@@]23C[C@@]24CC[C@H](O[C@@H]2OC[C@@H](O)[C@H](O)[C@H]2O)C(C)(C)[C@@H]4CCC3[C@]2(C)C[C@@H]3O[C@@]4(O[C@H]4C(C)(C)O)[C@H](O)[C@@H](C)[C@@H]3[C@@]12C (some centres undefined) |  | inactive | Not Active | Not Active | Not Active | Not Active | Not Active | inactive | inactive | Not Active |
| CC(=O)O[C@H](C[C@@H](C)[C@H]1C(=O)[C@H](O)[C@@]2(C)[C@@H]3CC[C@H]4C(C)(C)[C@@H](O[C@@H]5OC[C@@H](O)[C@H](O)[C@H]5O)CC[C@@]45C[C@@]35CC[C@]12C)[C@H]1OC1(C)C |  | inactive | Not Active | Not Active | Not Active | Not Active | Not Active | inactive | inactive | Not Active |
| CC(=O)O[C@@H]1C[C@@]23C[C@@]24CC[C@H](O[C@@H]2OC[C@@H](O)[C@H](O)[C@H]2O)C(C)(C)[C@@H]4CC[C@H]3[C@]2(C)C[C@@H]3O[C@@]4(C[C@@H](C)[C@@H]3[C@@]12C)OC[C@]1(C)O[C@H]41 |  | inactive | Not Active | Not Active | Not Active | Not Active | Not Active | inactive | inactive | Not Active |
| C[C@H]1[C@H]2[C@H](C[C@@]3(C)C4=CC[C@H]5C(C)(C)[C@@H](O[C@@H]6OC[C@@H](O)[C@H](O)[C@H]6O)CC[C@@]56C[C@@]46CC[C@]23C)O[C@@]2(O[C@H]2C(C)(C)O)[C@@H]1O |  | inactive | Not Active | Not Active | Not Active | Not Active | Not Active | inactive | inactive | Not Active |
| CC(=O)O[C@@H]1C[C@@]23C[C@@]24CC[C@H](O[C@@H]2OC[C@@H](O)[C@H](O)[C@H]2O)C(C)(C)[C@@H]4CC[C@H]3[C@]2(C)[C@@H](O)[C@]34O[C@H](C[C@@H](C)[C@@H]3[C@@]12C)[C@@H](C(C)(C)O)O4 |  | inactive | Not Active | Not Active | Not Active | Not Active | Not Active | inactive | inactive | Not Active |
| C[C@@H]1C[C@H]2O[C@@]3(O[C@@H]2C(C)(C)O)[C@H](O)[C@@]2(C)[C@@H]4CC[C@H]5C(C)(C)[C@@H](O[C@@H]6OC[C@@H](O)[C@H](O)[C@H]6O)CC[C@@]56C[C@@]46CC[C@]2(C)[C@@H]13 |  | inactive | Not Active | Not Active | Not Active | Not Active | Not Active | inactive | inactive | Not Active |
| CC(=O)O[C@@H]1C[C@@]23C[C@@]24CC[C@H](O[C@@H]2OC[C@@H](O)[C@H](O)[C@H]2O)C(C)(C)[C@@H]4CC=C3[C@]2(C)C[C@@H]3O[C@@]4(O[C@H]4C(C)(C)O)[C@H](O)[C@@H](C)[C@@H]3[C@@]12C |  | inactive | Not Active | Not Active | Not Active | Not Active | Not Active | inactive | inactive | Not Active |

Source: ChEMBL document CHEMBL1139210, “9,19-cyclolanostane derivatives from the roots of Actaea pachypoda” (J Nat Prod, 2007)
